Values after ≈ are worked out from the molar mass of the structure shown.
How the values were obtained:
Staphylococcus aureus [1] = assay: Antibacterial activity against Staphylococcus aureus at 1000 ug/mL after 72 hrs by agar diffusion assay; assay type: functional; details: read-out: IZ
Klebsiella pneumoniae [2] = assay: Antibacterial activity against Klebsiella pneumoniae by liquid dilution method; assay type: functional
Salmonella typhimurium [3] = assay: Antibacterial activity against Salmonella Typhimurium at 1000 ug/mL after 72 hrs by agar diffusion assay; assay type: functional, Salmonella enterica subsp. enterica serovar Typhimurium; details: Salmonella enterica, read-out: IZ
Klebsiella pneumoniae [4] = assay: Antibacterial activity against Klebsiella pneumoniae at 1000 ug/mL after 72 hrs by agar diffusion assay; assay type: functional; details: read-out: IZ
Candida albicans [5] = assay: Antifungal activity against Candida albicans at 1000 ug/mL after 72 hrs by agar diffusion assay; assay type: functional; details: read-out: IZ
Escherichia coli [6] = assay: Antibacterial activity against Escherichia coli at 1000 ug/mL after 72 hrs by agar diffusion assay; assay type: functional; details: read-out: IZ
Bacillus subtilis [7] = assay: Antibacterial activity against Bacillus subtilis by liquid dilution method; assay type: functional
Aspergillus niger [8] = assay: Antifungal activity against Aspergillus niger at 1000 ug/mL after 72 hrs by agar diffusion assay; assay type: functional; details: read-out: IZ
Bacillus subtilis [9] = assay: Antibacterial activity against Bacillus subtilis at 1000 ug/mL after 72 hrs by agar diffusion assay; assay type: functional; details: read-out: IZ
Staphylococcus aureus [10] = assay: Antibacterial activity against Staphylococcus aureus by liquid dilution method; assay type: functional
Candida albicans [11] = assay: Antifungal activity against Candida albicans by liquid dilution method; assay type: functional
Streptococcus pyogenes [12] = assay: Antibacterial activity against Streptococcus pyogenes by liquid dilution method; assay type: functional
Aspergillus flavus [13] = assay: Antifungal activity against Aspergillus flavus at 1000 ug/mL after 72 hrs by agar diffusion assay; assay type: functional; details: read-out: IZ
Salmonella typhimurium [14] = assay: Antibacterial activity against Salmonella Typhimurium by liquid dilution method; assay type: functional, Salmonella enterica subsp. enterica serovar Typhimurium; details: Salmonella enterica
Streptococcus pyogenes [15] = assay: Antibacterial activity against Streptococcus pyogenes at 1000 ug/mL after 72 hrs by agar diffusion assay; assay type: functional; details: read-out: IZ
Aspergillus flavus [16] = assay: Antifungal activity against Aspergillus flavus by liquid dilution method; assay type: functional
Escherichia coli [17] = assay: Antibacterial activity against Escherichia coli by liquid dilution method; assay type: functional
Aspergillus niger [18] = assay: Antifungal activity against Aspergillus niger by liquid dilution method; assay type: functional

| SMILES | MIC (Klebsiella pneumoniae [2]) | MIC (Bacillus subtilis [7]) | MIC (Staphylococcus aureus [10]) | MIC (Candida albicans [11]) | MIC (Streptococcus pyogenes [12]) | MIC (Salmonella typhimurium [14]) | MIC (Aspergillus flavus [16]) | MIC (Escherichia coli [17]) | MIC (Aspergillus niger [18]) | zone of inhibition at 1000 µg/mL (Staphylococcus aureus [1]) | zone of inhibition at 1000 µg/mL (Salmonella typhimurium [3]) | zone of inhibition at 1000 µg/mL (Klebsiella pneumoniae [4]) | zone of inhibition at 1000 µg/mL (Candida albicans [5]) | zone of inhibition at 1000 µg/mL (Escherichia coli [6]) | zone of inhibition at 1000 µg/mL (Aspergillus niger [8]) | zone of inhibition at 1000 µg/mL (Bacillus subtilis [9]) | zone of inhibition at 1000 µg/mL (Aspergillus flavus [13]) | zone of inhibition at 1000 µg/mL (Streptococcus pyogenes [15]) |
| --- | --- | --- | --- | --- | --- | --- | --- | --- | --- | --- | --- | --- | --- | --- | --- | --- | --- | --- |
| O=c1oc2ccccc2cc1-c1nc2ccccc2c2nc3ccccc3n12 | 30 µg/mL (≈ 82.6 µM) | 45 µg/mL (≈ 124 µM) | 35 µg/mL (≈ 96.3 µM) | 35 µg/mL (≈ 96.3 µM) | 30 µg/mL (≈ 82.6 µM) | 25 µg/mL (≈ 68.8 µM) | 40 µg/mL (≈ 110 µM) | 25 µg/mL (≈ 68.8 µM) | 25 µg/mL (≈ 68.8 µM) | 36 mm | 32 mm | 34 mm | 27 mm | 38 mm | 34 mm | 31 mm | 32 mm | 23 mm |
| O=c1oc2c(Cl)cc(Cl)cc2cc1-c1nc2ccccc2c2nc3ccccc3n12 | 5 µg/mL (≈ 11.6 µM) | 10 µg/mL (≈ 23.1 µM) | 2.5 µg/mL (≈ 5.78 µM) | 50 µg/mL (≈ 116 µM) | 10 µg/mL (≈ 23.1 µM) | 2.5 µg/mL (≈ 5.78 µM) | 35 µg/mL (≈ 81 µM) | 10 µg/mL (≈ 23.1 µM) | 35 µg/mL (≈ 81 µM) | 50 mm | 48 mm | 47 mm | 39 mm | 44 mm | 38 mm | 42 mm | 38 mm | 38 mm |
| O=c1oc2c(Br)cc(Br)cc2cc1-c1nc2ccccc2c2nc3ccccc3n12 | 35 µg/mL (≈ 67.2 µM) | 50 µg/mL (≈ 95.9 µM) | 40 µg/mL (≈ 76.8 µM) | 15 µg/mL (≈ 28.8 µM) | 20 µg/mL (≈ 38.4 µM) | 30 µg/mL (≈ 57.6 µM) | 15 µg/mL (≈ 28.8 µM) | 15 µg/mL (≈ 28.8 µM) | 20 µg/mL (≈ 38.4 µM) | 39 mm | 36 mm | 38 mm | 41 mm | 41 mm | 48 mm | 34 mm | 46 mm | 36 mm |
| Cc1cccc2cc(-c3nc4ccccc4c4nc5ccccc5n34)c(=O)oc12 | 30 µg/mL (≈ 79.5 µM) | 45 µg/mL (≈ 119 µM) | 30 µg/mL (≈ 79.5 µM) | 45 µg/mL (≈ 119 µM) | 45 µg/mL (≈ 119 µM) | 20 µg/mL (≈ 53 µM) | 35 µg/mL (≈ 92.7 µM) | 40 µg/mL (≈ 106 µM) | 50 µg/mL (≈ 132 µM) | 32 mm | 35 mm | 31 mm | 32 mm | 32 mm | 27 mm | 30 mm | 35 mm | 24 mm |
| O=c1oc2ccc([N+](=O)[O-])cc2cc1-c1nc2ccccc2c2nc3ccccc3n12 | 40 µg/mL (≈ 97.9 µM) | 10 µg/mL (≈ 24.5 µM) | 35 µg/mL (≈ 85.7 µM) | 50 µg/mL (≈ 122 µM) | 40 µg/mL (≈ 97.9 µM) | 25 µg/mL (≈ 61.2 µM) | 45 µg/mL (≈ 110 µM) | 30 µg/mL (≈ 73.5 µM) | 45 µg/mL (≈ 110 µM) | 24 mm | 32 mm | 29 mm | 27 mm | 35 mm | 29 mm | 27 mm | 30 mm | 28 mm |
| CC1(C)S[C@@H]2[C@H](NC(=O)[C@H](N)c3ccccc3)C(=O)N2[C@H]1C(=O)O [AMPICILLIN] | 10 µg/mL (≈ 28.6 µM) | 20 µg/mL (≈ 57.2 µM) | 10 µg/mL (≈ 28.6 µM) |  | 25 µg/mL (≈ 71.5 µM) | 10 µg/mL (≈ 28.6 µM) |  | 15 µg/mL (≈ 42.9 µM) |  | 48 mm | 45 mm | 45 mm |  | 40 mm |  | 39 mm |  | 35 mm |
| CC(=O)N1CCN(c2ccc(OCC3COC(Cn4ccnc4)(c4ccc(Cl)cc4Cl)O3)cc2)CC1 (stereo not given) [KETOCONAZOLE] |  |  |  | 25 µg/mL (≈ 47 µM) |  |  | 15 µg/mL (≈ 28.2 µM) |  | 15 µg/mL (≈ 28.2 µM) |  |  |  | 40 mm |  | 45 mm |  | 43 mm |  |

The remaining molecules from weak to strong by MIC (Klebsiella pneumoniae [2]), led by results:

| MIC (Klebsiella pneumoniae [2]) | MIC (Bacillus subtilis [7]) | MIC (Staphylococcus aureus [10]) | MIC (Candida albicans [11]) | MIC (Streptococcus pyogenes [12]) | MIC (Salmonella typhimurium [14]) | MIC (Aspergillus flavus [16]) | MIC (Escherichia coli [17]) | MIC (Aspergillus niger [18]) | SMILES | zone of inhibition at 1000 µg/mL (Staphylococcus aureus [1]) | zone of inhibition at 1000 µg/mL (Salmonella typhimurium [3]) | zone of inhibition at 1000 µg/mL (Klebsiella pneumoniae [4]) | zone of inhibition at 1000 µg/mL (Candida albicans [5]) | zone of inhibition at 1000 µg/mL (Escherichia coli [6]) | zone of inhibition at 1000 µg/mL (Aspergillus niger [8]) | zone of inhibition at 1000 µg/mL (Bacillus subtilis [9]) | zone of inhibition at 1000 µg/mL (Aspergillus flavus [13]) | zone of inhibition at 1000 µg/mL (Streptococcus pyogenes [15]) |
| --- | --- | --- | --- | --- | --- | --- | --- | --- | --- | --- | --- | --- | --- | --- | --- | --- | --- | --- |
| 35 µg/mL (≈ 83 µM) | 50 µg/mL (≈ 119 µM) | 50 µg/mL (≈ 119 µM) | 45 µg/mL (≈ 107 µM) | 45 µg/mL (≈ 107 µM) | 30 µg/mL (≈ 71.2 µM) | 35 µg/mL (≈ 83 µM) | 45 µg/mL (≈ 107 µM) | 40 µg/mL (≈ 94.9 µM) | O=c1oc2ccccc2cc1-c1nc2ccccc2c2nc3c4nsnc4ccc3n12 | 31 mm | 24 mm | 27 mm | 26 mm | 26 mm | 22 mm | 32 mm | 35 mm | 22 mm |
| 35 µg/mL (≈ 71.4 µM) | 45 µg/mL (≈ 91.8 µM) | 35 µg/mL (≈ 71.4 µM) | 45 µg/mL (≈ 91.8 µM) | 35 µg/mL (≈ 71.4 µM) | 25 µg/mL (≈ 51 µM) | 50 µg/mL (≈ 102 µM) | 30 µg/mL (≈ 61.2 µM) | 40 µg/mL (≈ 81.6 µM) | O=c1oc2c(Cl)cc(Cl)cc2cc1-c1nc2ccccc2c2nc3c4nsnc4ccc3n12 | 39 mm | 31 mm | 34 mm | 26 mm | 32 mm | 33 mm | 34 mm | 29 mm | 20 mm |
| 25 µg/mL (≈ 56.5 µM) | 40 µg/mL (≈ 90.4 µM) | 40 µg/mL (≈ 90.4 µM) | 40 µg/mL (≈ 90.4 µM) | 35 µg/mL (≈ 79.1 µM) | 35 µg/mL (≈ 79.1 µM) | 10 µg/mL (≈ 22.6 µM) | 45 µg/mL (≈ 102 µM) | 40 µg/mL (≈ 90.4 µM) | O=c1oc2c(Br)cccc2cc1-c1nc2ccccc2c2nc3ccccc3n12 | 39 mm | 29 mm | 31 mm | 32 mm | 28 mm | 37 mm | 28 mm | 45 mm | 27 mm |
| 25 µg/mL (≈ 50 µM) | 40 µg/mL (≈ 79.9 µM) | 30 µg/mL (≈ 60 µM) | 35 µg/mL (≈ 70 µM) | 40 µg/mL (≈ 79.9 µM) | 35 µg/mL (≈ 70 µM) | 50 µg/mL (≈ 99.9 µM) | 35 µg/mL (≈ 70 µM) | 35 µg/mL (≈ 70 µM) | O=c1oc2c(Br)cccc2cc1-c1nc2ccccc2c2nc3c4nsnc4ccc3n12 | 35 mm | 29 mm | 30 mm | 29 mm | 31 mm | 31 mm | 29 mm | 33 mm | 23 mm |
